# Source: publication PMC6112376, “Comprehensive Analyses and Prioritization of Tox21 10K Chemicals Affecting Mitochondrial Function by in-Depth Mechanistic Studies” (Environmental Health Perspectives, 2018)
# Where two headings read alike, the source gives them in different places.
# Assays:
# [1] = system: Caenorhabditis elegans (Bristol N2); assay: C. elegans larval development and growth assay; conditions: Caenorhabditis elegans, read-out: LEC EXT: lowest effect concentration for extinction, a measure of nematode size
# [2] = system: isolated rat liver mitochondria; assay: Oxygen consumption, Clark-type oxygen electrode; type: biochemical
# [3] = system: HepG2 cells; assay: cells; conditions: Homo sapiens; for Emax: HepG2, read-out: MMP assays efficacy (%) HepG2
# [4] = system: HepG2 cells; assay: ROS-Glo hydrogen peroxide (ROS) assay; type: cell-based, human; conditions: Homo sapiens, HepG2, 2 h, read-out: ROS (HepG2) EC50
# [5] = system: rat primary hepatocytes; assay: MMP assay in rat primary hepatocytes; conditions: Rattus norvegicus, Hepatocyte
# [6] = system: hNSC; assay: MMP assay in human neural stem cells (hNSC); type: cell-based; conditions: Homo sapiens, Neural stem cell, 1 h, read-out: hNSC IC50 (MMP)
# [7] = system: HepG2 cells; assay: Intracellular ATP content (cell viability) assay; type: cell-based, human; conditions: Homo sapiens, HepG2, 40 h
# [8] = system: HeLa cells expressing YFP-Parkin; assay: Parkin translocation assay; type: cell-based, human
# [9] = system: Caenorhabditis elegans strain PE255; conditions: PE255 [sur-5::luc+::gfp; rol-6(su1006)], Caenorhabditis elegans, in vivo
# [10] = system: p53 (p53-bla HCT-116 cells); assay: p53 β-lactamase reporter gene assay; type: cell-based, human; conditions: 16 h incubation; mean±SD of three experiments
# [11] = system: Nrf2/ARE (ARE-bla HepG2 cells); assay: ARE β-lactamase reporter gene assay; type: cell-based, human; conditions: Homo sapiens, read-out: ARE (HepG2) EC50
# [12] = system: Caenorhabditis elegans strain PE255; assay: In vivo C. elegans ATP status assay; conditions: Caenorhabditis elegans, read-out: LEC LUM: lowest effect concentration for luminescence, a measure of nematode ATP content
# [13] = system: HepG2 cells; conditions: cited from earlier work; for IC50: read-out: MMP assays IC50 (µM) qHTS-HepG2
# [14] = system: rat primary hepatocytes
# [15] = system: Caenorhabditis elegans (Bristol N2); conditions: Bristol N2 (wild type), Caenorhabditis elegans, in vivo
# [16] = HepG2, 1 h, read-out: HepG2 IC50 Galactose (MMP)
# [17] = HepG2, 1 h, read-out: HepG2 IC50 Glucose (MMP)
# [18] = HepG2, read-out: MMP assays IC50 (µM) HepG2
# [19] = 1 h, read-out: Rat hepatocytes IC50 (MMP)
# [20] = read-out: MMP assays IC50 (µM) Rat Hepatocytes
# [21] = read-out: ATP (HepG2, galactose) IC50
# [22] = read-out: ATP (HepG2, glucose) IC50
structure (smiles),measurement,setting,value
"O=C1c2c(O)ccc([N+](=O)[O-])c2C(=O)c2c([N+](=O)[O-])ccc(O)c21 [1,8-Dihydroxy-4,5-dinitroanthraquinone]",minimal effective concentration,[1],75 µM
same,Potential Mechanism,[2],"Uncoupler at low concentrations (0.8 - 4µM), and uncoupler + inhibitor at high concentrations (20-100 µM)"
same,"I-ADP, % of control (O2 consumption rate)",[2]; 0.16 µM,106 (52.0) % of control
same,"I-sub, % of control (O2 consumption rate)",[2]; 0.16 µM,104 (16.8) % of control
same,"II-ADP, % of control (O2 consumption rate)",[2]; 0.16 µM,98 (75.7) % of control
same,"II-sub, % of control (O2 consumption rate)",[2]; 0.16 µM,98 (29.9) % of control
same,"I-ADP, % of control (O2 consumption rate)",[2]; 0.8 µM,102 (50.0) % of control
same,"I-sub, % of control (O2 consumption rate)",[2]; 0.8 µM,139 (22.3) % of control
same,"II-ADP, % of control (O2 consumption rate)",[2]; 0.8 µM,102 (78.8) % of control
same,"II-sub, % of control (O2 consumption rate)",[2]; 0.8 µM,132 (40.5) % of control
same,"I-ADP, % of control (O2 consumption rate)",[2]; 4 µM,119 (58.8) % of control
same,"I-sub, % of control (O2 consumption rate)",[2]; 4 µM,327 (52.6) % of control
same,"II-ADP, % of control (O2 consumption rate)",[2]; 4 µM,104 (80.3) % of control
same,"II-sub, % of control (O2 consumption rate)",[2]; 4 µM,206 (63.1) % of control
same,"I-ADP, % of control (O2 consumption rate)",[2]; 20 µM,95 (47.0) % of control
same,"I-sub, % of control (O2 consumption rate)",[2]; 20 µM,311 (50.0) % of control
same,"II-ADP, % of control (O2 consumption rate)",[2]; 20 µM,40 (30.9) % of control
same,"II-sub, % of control (O2 consumption rate)",[2]; 20 µM,108 (33.0) % of control
same,"I-ADP, % of control (O2 consumption rate)",[2]; 100 µM,35 (10.0) % of control
same,"I-sub, % of control (O2 consumption rate)",[2]; 100 µM,84 (10.0) % of control
same,"II-ADP, % of control (O2 consumption rate)",[2]; 100 µM,49 (17.8) % of control
same,"II-sub, % of control (O2 consumption rate)",[2]; 100 µM,141 (20.8) % of control
same,IC50,[3]; [16],2.81 µM
same,IC50,[3]; [17],1.79 µM
same,IC50,[3]; [18],0.45 µM
same,Emax,[3],86%
same,EC50,[4],34.3 µM
same,IC50,[5]; [19],16.1 µM
same,IC50,[5]; [20],5.69 ± 2.62 µM
same,IC50,[6],3 µM
same,IC50,[7]; [21],17 µM
same,IC50,[7]; [22],27 µM
same,Parkin recruitment,[8],Inactive
same,"LEC (lowest effect concentration), ATP assay",[9],≤ 10 µM
same,p53 (HCT-116) EC50,[10],Inactive
same,EC50,"[11]; HepG2, 16 h",2.43 ± 1.38 µM
same,minimal effective concentration,[12],10 µM
same,MMP assays efficacy (%) qHTS-HepG2,[13],-86±5%
same,IC50,[13],0.07 ± 0.04 µM
same,MMP assays efficacy (%) Rat Hepatocytes,[14],-79±33%
same,Rat hepatocytes (efficacy) (MMP),[14],16.09±6.94 ( −119±28.1 ) %
CC(C)(C)c1cc([N+](=O)[O-])cc([N+](=O)[O-])c1O [Dinoterb],minimal effective concentration,[1],5 µM
same,Potential Mechanism,[2],"Uncoupler at low concentrations (0.032-0.8 µM), and Uncoupler + inhibitor at high concentrations (4-100 µM)"
same,effect on mitochondrial respiration (in words),[2],effects similar to those of FCCP
same,uncoupler effect at (concentration) in the oxygen consumption assay,[2],0.032 µM
same,"I-ADP, % of control (O2 consumption rate)",[2]; 0.0064 µM,103 (38.3) % of control
same,"I-sub, % of control (O2 consumption rate)",[2]; 0.0064 µM,92 (9.9) % of control
same,"II-ADP, % of control (O2 consumption rate)",[2]; 0.0064 µM,105 (66) % of control
same,"II-sub, % of control (O2 consumption rate)",[2]; 0.0064 µM,99 (18.4) % of control
same,"I-ADP, % of control (O2 consumption rate)",[2]; 0.032 µM,95 (41.5) % of control
same,"I-sub, % of control (O2 consumption rate)",[2]; 0.032 µM,135 (17.7) % of control
same,"II-ADP, % of control (O2 consumption rate)",[2]; 0.032 µM,97 (65.4) % of control
same,"I-ADP, % of control (O2 consumption rate)",[2]; 0.16 µM,113 (49.2) % of control
same,"I-sub, % of control (O2 consumption rate)",[2]; 0.16 µM,206 (27.0) % of control
same,"II-ADP, % of control (O2 consumption rate)",[2]; 0.16 µM,106 (72.0) % of control
same,"II-sub, % of control (O2 consumption rate)",[2]; 0.16 µM,264 (55.1) % of control
same,"I-ADP, % of control (O2 consumption rate)",[2]; 0.8 µM,148 (64.4) % of control
same,"I-sub, % of control (O2 consumption rate)",[2]; 0.8 µM,486 (63.7) % of control
same,"II-ADP, % of control (O2 consumption rate)",[2]; 0.8 µM,102 (68.8) % of control
same,"II-sub, % of control (O2 consumption rate)",[2]; 0.8 µM,367 (76.8) % of control
same,"I-ADP, % of control (O2 consumption rate)",[2]; 4 µM,100 (43.7) % of control
same,"I-sub, % of control (O2 consumption rate)",[2]; 4 µM,320 (41.9) % of control
same,"II-ADP, % of control (O2 consumption rate)",[2]; 4 µM,58 (39.5) % of control
same,"II-sub, % of control (O2 consumption rate)",[2]; 4 µM,211 (44.0) % of control
same,"I-ADP, % of control (O2 consumption rate)",[2]; 20 µM,69 (30.1) % of control
same,"I-sub, % of control (O2 consumption rate)",[2]; 20 µM,239 (31.3) % of control
same,"II-ADP, % of control (O2 consumption rate)",[2]; 20 µM,11 (7.7) % of control
same,"II-sub, % of control (O2 consumption rate)",[2]; 20 µM,36 (7.6) % of control
same,"I-ADP, % of control (O2 consumption rate)",[2]; 100 µM,10 (4.9) % of control
same,"I-sub, % of control (O2 consumption rate)",[2]; 100 µM,23 (5.0) % of control
same,"II-ADP, % of control (O2 consumption rate)",[2]; 100 µM,5 (3.1) % of control
same,"II-sub, % of control (O2 consumption rate)",[2]; 100 µM,13 (4.4) % of control
same,IC50,[3]; [16],7.19 µM
same,IC50,[3]; [17],7.23 µM
same,IC50,[3]; [18],2.24 µM
same,Emax,[3],101%
same,EC50,[4],13.2 µM
same,IC50,[5]; [19],2.39 µM
same,IC50,[5]; [20],0.76 ± 0.45 µM
same,IC50,[6],10.1 µM
same,IC50,[7]; [21],22.3 µM
same,IC50,[7]; [22],19.7 µM
same,Parkin recruitment,[8],Active
same,Parkin translocation into mitochondria (in words),[8]; 3 h,patterns similar to antimycin A and FCCP
same,"LEC (lowest effect concentration), ATP assay",[9],< 10 µM
same,inhibitory effect at (concentration) on ATP content in the C. elegans assay,[9],1.0 µM
same,EC50,"[11]; HepG2, 16 h incubation, mean±SD of three experiments",0.52 ± 0.15 µM
same,minimal effective concentration,[12],1 µM
same,"LEC (lowest effect concentration), larval growth assay",[15],< 10 µM
same,MMP assays efficacy (%) qHTS-HepG2,[13],-95±8%
same,IC50,[13],0.48 µM
same,MMP assays efficacy (%) Rat Hepatocytes,[14],-88±9%
same,Rat hepatocytes (efficacy) (MMP),[14],2.39±1.02 ( −105±23.8 ) %
